Laboratory results taken from patent publication US11986471B2, “Compounds and methods of use” (Tango Therapeutics, Inc., priority 2018, dated 2024).
pIC50: −log10 of the molar value.

Legend:
PRMT5 [1] = molecular target: T1, PRMT5 (Homo sapiens, UniProt O14744); assay: PRMT5 IC50 assay in the presence of SAM as cofactor; format: biochemical
T1 construct: purchased Viva (custom protein)
Outline: (§1)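 Ki conversion: SAM arm, Ki=IC50/1.5; MTA arm, Ki=IC50/13.5. No-cofactor arm reported as IC50 only. Selectivity expressed as Ki(SAM)/Ki(MTA).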

HAP1 MTAP-deleted = assay: SDMA in-cell western assay, HAP1 MTAP-deleted cell line; format: cell-based; conditions: for pIC50: Homo sapiens, HAP1 MTAP-deleted cell line; for MTAP Intact/Deleted Ratio: IC50 ratio HAP1 MTAP-intact / HAP1 MTAP-deleted
Outline: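 MTAP-null HAP1 cells, the deleted member of an isogenic pair with endogenously MTAP-expressing HAP1, are treated with compound. SDMA is then quantified by in-cell western and an IC50 is calculated.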

PRMT5 [2] = molecular target: T1, PRMT5; assay: PRMT5 IC50 assay with no cofactor; format: biochemical
Outline: as §1

HAP1 MTAP-intact = assay: SDMA in-cell western assay, HAP1 MTAP-intact cell line; format: cell-based; conditions: Homo sapiens
Outline: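 Cells from two matched HAP1 lines, MTAP-null and MTAP-expressing at endogenous levels, are treated with compound. SDMA is then quantified by in-cell western and an IC50 is calculated for each line.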

PRMT5 [3] = molecular target: T1, PRMT5; assay: PRMT5 IC50 assay in the presence of MTA as cofactor; format: biochemical; conditions: for pIC50: PRMT5, MTA as cofactor; for SAM/MTA Ratio: ratio between the Ki in the presence of SAM and the Ki in the presence of MTA
Outline: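 IC50 against PRMT5 determined with SAM as cofactor, with no cofactor, and with MTA as cofactor. Ki derived as IC50/1.5 for the SAM assay and IC50/13.5 for the MTA assay; SAM Ki to MTA Ki ratio also reported.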

T1 sequence (O14744 whole entry): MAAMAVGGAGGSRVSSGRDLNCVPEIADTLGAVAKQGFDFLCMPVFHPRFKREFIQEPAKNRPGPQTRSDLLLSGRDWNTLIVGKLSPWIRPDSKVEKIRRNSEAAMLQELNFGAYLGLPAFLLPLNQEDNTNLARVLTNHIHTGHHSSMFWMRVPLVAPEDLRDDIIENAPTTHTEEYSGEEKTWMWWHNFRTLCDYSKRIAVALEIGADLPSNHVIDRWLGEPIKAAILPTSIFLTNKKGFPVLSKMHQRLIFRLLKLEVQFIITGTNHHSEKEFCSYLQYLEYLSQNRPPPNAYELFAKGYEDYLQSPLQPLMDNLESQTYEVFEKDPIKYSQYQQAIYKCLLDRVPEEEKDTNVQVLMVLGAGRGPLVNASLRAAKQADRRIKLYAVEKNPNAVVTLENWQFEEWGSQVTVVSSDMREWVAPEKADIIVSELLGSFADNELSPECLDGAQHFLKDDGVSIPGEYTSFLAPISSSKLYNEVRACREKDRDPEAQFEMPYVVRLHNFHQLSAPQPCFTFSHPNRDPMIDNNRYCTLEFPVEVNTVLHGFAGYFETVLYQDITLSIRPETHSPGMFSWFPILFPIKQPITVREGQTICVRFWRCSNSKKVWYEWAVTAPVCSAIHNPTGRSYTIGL
T1 sequence (Q9BQA1 whole entry partner): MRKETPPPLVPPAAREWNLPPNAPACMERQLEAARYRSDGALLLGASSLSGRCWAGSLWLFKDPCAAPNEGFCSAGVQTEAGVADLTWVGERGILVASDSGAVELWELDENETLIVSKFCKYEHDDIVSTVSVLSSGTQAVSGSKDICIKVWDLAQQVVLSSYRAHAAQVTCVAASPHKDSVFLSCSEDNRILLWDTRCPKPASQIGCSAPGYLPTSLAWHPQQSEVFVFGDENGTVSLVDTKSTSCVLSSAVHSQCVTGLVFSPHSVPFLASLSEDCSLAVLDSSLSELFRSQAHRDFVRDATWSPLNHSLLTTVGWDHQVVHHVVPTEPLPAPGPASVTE

Structure (SMILES)	pIC50 (PRMT5 [1])	pIC50 (HAP1 MTAP-deleted)	pIC50 (PRMT5 [2])	pIC50 (HAP1 MTAP-intact)	pIC50 (PRMT5 [3])	MTAP Intact/Deleted Ratio (HAP1 MTAP-deleted)	SAM/MTA Ratio (PRMT5 [3])
Cc1ncoc1COc1ccc2c(c1)CCN(C[C@@H](O)CNC(=O)c1ccc(OC3CCOCC3)cc1)C2 [Compound 475, N-[(2S)-2-hydroxy-3-{6-[(4-methyl-1,3-oxazol-5-yl)methoxy]-1,2,3,4-tetrahydroisoquinolin-2-yl}propyl]-4-(oxan-4-yloxy)benzamide]	5.30 to 6.30	5.00 to 6.00	≤ 5.30	5.00 to 6.00	6.30 to 7.30	C* (an IC50 ratio of less than 3 fold between the IC50 in the HAP1 MTAP-intact cell line and the HAP1 MTAP-deleted cell line)	A (a Ki ratio greater than or equal to 10 fold between the Ki in the presence of SAM and the Ki in the presence of MTA)
Cc1c(OCc2cnco2)ccc2c1CCN(C[C@@H](O)CNC(=O)c1ccnc(NC3CCC3C3CCC3)c1)C2 (stereo partly drawn) [Compound 476, 2-([1,1′-bi(cyclobutan)]-2-ylamino)-N—((S)-2-hydroxy-3-(5-methyl-6-(oxazol-5-ylmethoxy)-3,4-dihydroisoquinolin-2(1H)-yl)propyl)isonicotinamide]	5.30 to 6.30	≤ 5.00	≤ 5.30	≤ 5.00	6.30 to 7.30	C* (an IC50 ratio of less than 3 fold between the IC50 in the HAP1 MTAP-intact cell line and the HAP1 MTAP-deleted cell line)	A (a Ki ratio greater than or equal to 10 fold between the Ki in the presence of SAM and the Ki in the presence of MTA)
CCN(C)c1nc(NC2COC2)cc(C(=O)NC[C@H](O)CN2CCc3c(ccc(OCc4ocnc4C)c3C)C2)n1 [Compound 477]	6.30 to 7.30	5.00 to 6.00	≤ 5.30	≤ 5.00	6.30 to 7.30	B* (an IC50 ratio greater than or equal to 3 fold but lower than 10 fold between the IC50 in the HAP1 MTAP-intact cell line and the HAP1 MTAP-deleted cell line)	A (a Ki ratio greater than or equal to 10 fold between the Ki in the presence of SAM and the Ki in the presence of MTA)
CCN(C)c1cc(C(=O)NC[C@H](O)CN2CCc3c(ccc(OCc4ocnc4C)c3C)C2)cc(NC2CCC2)n1 [Compound 478, 2-(cyclobutylamino)-6-[ethyl(methyl)amino]-N-[(2S)-2-hydroxy-3-{5-methyl-6-[(4-methyl-1,3-oxazol-5-yl)methoxy]-1,2,3,4-tetrahydroisoquinolin-2-yl}propyl]pyridine-4-carboxamide]	5.30 to 6.30	≤ 5.00	≤ 5.30	≤ 5.00	6.30 to 7.30	C* (an IC50 ratio of less than 3 fold between the IC50 in the HAP1 MTAP-intact cell line and the HAP1 MTAP-deleted cell line)	A (a Ki ratio greater than or equal to 10 fold between the Ki in the presence of SAM and the Ki in the presence of MTA)
CC(C)C(=O)N1CC(Nc2cc(C(=O)NC[C@H](O)CN3CCc4cc(OCc5cnco5)ccc4C3)ccn2)C1 [Compound 479, N-[(2S)-2-hydroxy-3-[6-(oxazol-5-ylmethoxy)-3,4-dihydro-1H-isoquinolin-2-yl]propyl]-2-[[1-(2-methylpropanoyl)azetidin-3-yl]amino]pyridine-4-carboxamide]	5.30 to 6.30	5.00 to 6.00	≤ 5.30	5.00 to 6.00	6.30 to 7.30	C* (an IC50 ratio of less than 3 fold between the IC50 in the HAP1 MTAP-intact cell line and the HAP1 MTAP-deleted cell line)	A (a Ki ratio greater than or equal to 10 fold between the Ki in the presence of SAM and the Ki in the presence of MTA)

Further lines, with some results ahead:

pIC50 (PRMT5 [1])	pIC50 (HAP1 MTAP-deleted)	pIC50 (PRMT5 [2])	pIC50 (HAP1 MTAP-intact)	pIC50 (PRMT5 [3])	Structure (SMILES)	MTAP Intact/Deleted Ratio (HAP1 MTAP-deleted)	SAM/MTA Ratio (PRMT5 [3])
6.30 to 7.30	5.00 to 6.00	≤ 5.30	≤ 5.00	6.30 to 7.30	Cc1ncoc1COc1ccc2c(n1)CCN(C[C@@H](O)CNC(=O)c1ccnc(NC3CCC3)c1)C2 [Compound 467, 2-(cyclobutylamino)-N-[(2S)-2-hydroxy-3-[2-[(4-methyloxazol-5-yl)methoxy]-7,8-dihydro-5H-1,6-naphthyridin-6-yl]propyl]pyridine-4-carboxamide]	C* (an IC50 ratio of less than 3 fold between the IC50 in the HAP1 MTAP-intact cell line and the HAP1 MTAP-deleted cell line)	A (a Ki ratio greater than or equal to 10 fold between the Ki in the presence of SAM and the Ki in the presence of MTA)
6.30 to 7.30	5.00 to 6.00	5.30 to 6.30	5.00 to 6.00	6.30 to 7.30	O=C(NC[C@H](O)CN1CCc2cc(OCc3cnco3)ccc2C1)c1ccnc(NC2CN(C(=O)C3CCC3)C2)c1 [Compound 468, 2-[[1-(cyclobutanecarbonyl)azetidin-3-yl]amino]-N-[(2S)-2-hydroxy-3-[6-(oxazol-5-ylmethoxy)-3,4-dihydro-1H-isoquinolin-2-yl]propyl]pyridine-4-carboxamide]	B* (an IC50 ratio greater than or equal to 3 fold but lower than 10 fold between the IC50 in the HAP1 MTAP-intact cell line and the HAP1 MTAP-deleted cell line)	A (a Ki ratio greater than or equal to 10 fold between the Ki in the presence of SAM and the Ki in the presence of MTA)
6.30 to 7.30	5.00 to 6.00	5.30 to 6.30	5.00 to 6.00	6.30 to 7.30	CCC(=O)N1CC(Nc2cc(C(=O)NC[C@H](O)CN3CCc4cc(OCc5cnco5)ccc4C3)ccn2)C1 [Compound 469, N-[(2S)-2-hydroxy-3-[6-(oxazol-5-ylmethoxy)-3,4-dihydro-1H-isoquinolin-2-yl]propyl]-2-[(1-propanoylazetidin-3-yl)amino]pyridine-4-carboxamide]	C* (an IC50 ratio of less than 3 fold between the IC50 in the HAP1 MTAP-intact cell line and the HAP1 MTAP-deleted cell line)	A (a Ki ratio greater than or equal to 10 fold between the Ki in the presence of SAM and the Ki in the presence of MTA)
6.30 to 7.30	> 6.00	5.30 to 6.30	≤ 5.00	6.30 to 7.30	CCCC(=O)N1CCC(Nc2cc(C(=O)NC[C@H](O)CN3CCc4c(ccc(OCc5cnco5)c4C)C3)ccn2)CC1 [Compound 470, (S)-2-((1-butyrylpiperidin-4-yl)amino)-N-(2-hydroxy-3-(5-methyl-6-(oxazol-5-ylmethoxy)-3,4-dihydroisoquinolin-2(1H)-yl)propyl)isonicotinamide]	A* (an IC50 ratio greater than or equal to 10 fold between the IC50 in the HAP1 MTAP-intact cell line and the HAP1 MTAP-deleted cell line)	A (a Ki ratio greater than or equal to 10 fold between the Ki in the presence of SAM and the Ki in the presence of MTA)
6.30 to 7.30	5.00 to 6.00	5.30 to 6.30	5.00 to 6.00	6.30 to 7.30	CC(=O)N1CCC(Nc2cc(C(=O)NC[C@H](O)CN3CCc4cc(OCc5cnco5)ccc4C3)ccn2)CC1 [Compound 471, 2-[(1-acetyl-4-piperidyl)amino]-N-[(2S)-2-hydroxy-3-[6-(oxazol-5-ylmethoxy)-3,4-dihydro-1H-isoquinolin-2-yl]propyl]pyridine-4-carboxamide]	B* (an IC50 ratio greater than or equal to 3 fold but lower than 10 fold between the IC50 in the HAP1 MTAP-intact cell line and the HAP1 MTAP-deleted cell line)	A (a Ki ratio greater than or equal to 10 fold between the Ki in the presence of SAM and the Ki in the presence of MTA)
6.30 to 7.30	5.00 to 6.00	5.30 to 6.30	≤ 5.00	6.30 to 7.30	Cc1c(OCc2cnco2)ccc2c1CCN(C[C@@H](O)CNC(=O)c1ccnc(NC3CC4(CC4)C3)c1)C2 [Compound 472]	B* (an IC50 ratio greater than or equal to 3 fold but lower than 10 fold between the IC50 in the HAP1 MTAP-intact cell line and the HAP1 MTAP-deleted cell line)	A (a Ki ratio greater than or equal to 10 fold between the Ki in the presence of SAM and the Ki in the presence of MTA)
6.30 to 7.30	5.00 to 6.00	5.30 to 6.30	≤ 5.00	6.30 to 7.30	Cc1c(OCc2cnco2)ccc2c1CCN(C[C@@H](O)CNC(=O)c1ccnc(NC3CC4(CCC4)C3)c1)C2 [Compound 473, (S)—N-(2-hydroxy-3-(5-methyl-6-(oxazol-5-ylmethoxy)-3,4-dihydroisoquinolin-2(1H)-yl)propyl)-2-(spiro[3.3]heptan-2-ylamino)isonicotinamide]	C* (an IC50 ratio of less than 3 fold between the IC50 in the HAP1 MTAP-intact cell line and the HAP1 MTAP-deleted cell line)	A (a Ki ratio greater than or equal to 10 fold between the Ki in the presence of SAM and the Ki in the presence of MTA)
6.30 to 7.30	5.00 to 6.00	≤ 5.30	5.00 to 6.00	6.30 to 7.30	CC(C)CC(=O)N1CC(Nc2cc(C(=O)NC[C@H](O)CN3CCc4cc(OCc5cnco5)ccc4C3)ccn2)C1 [Compound 474, N-[(2S)-2-hydroxy-3-[6-(oxazol-5-ylmethoxy)-3,4-dihydro-1H-isoquinolin-2-yl]propyl]-2-[[1-(3-methylbutanoyl)azetidin-3-yl]amino]pyridine-4-carboxamide]	B* (an IC50 ratio greater than or equal to 3 fold but lower than 10 fold between the IC50 in the HAP1 MTAP-intact cell line and the HAP1 MTAP-deleted cell line)	A (a Ki ratio greater than or equal to 10 fold between the Ki in the presence of SAM and the Ki in the presence of MTA)
